# From patent US20210038607A1, “OXADIAZOLYLTHIOPHENE DERIVATIVES USEFUL AS HISTONE DEACETYLASE INHIBITORS” (Karus Therapeutics Limited, priority 2018, published 2021)
# Assays:
# Human HDAC1 = target: T1, Human HDAC1 (Homo sapiens, UniProt Q13547); assay: HDAC1 biochemical assay, AMC-labeled peptide substrate; settings: read-out: HDAC Isoform IC50 (nM) 1
# T1 construct: full length with C-terminal His-tag and C-terminal FLAG-tag; His (C); FLAG (C); host or cells: baculovirus expression system
# In short: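 Two-step fluorogenic read: HDAC1 deacetylates 50 μM acetyl-lysine AMC peptide RHKK(Ac)AMC for 1 h at 30° C (pH 8.0, 1% DMSO, with compound), then developer digests the product for fluorescence at Ex/Em 360/460. Enzyme is full-length human, His/FLAG-tagged, insect-cell expressed, at 0.3 ng/ul.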
# Human HDAC10 = target: T2, Human HDAC10 (Homo sapiens, UniProt Q969S8); assay: HDAC10 biochemical assay, AMC-labeled peptide substrate; settings: read-out: HDAC Isoform IC50 (nM) 10
# T2 construct: Human HDAC10 (a.a. 1-481); GST (N); His (C); host or cells: baculovirus expression system
# T2 sequence (Q969S8 1-481): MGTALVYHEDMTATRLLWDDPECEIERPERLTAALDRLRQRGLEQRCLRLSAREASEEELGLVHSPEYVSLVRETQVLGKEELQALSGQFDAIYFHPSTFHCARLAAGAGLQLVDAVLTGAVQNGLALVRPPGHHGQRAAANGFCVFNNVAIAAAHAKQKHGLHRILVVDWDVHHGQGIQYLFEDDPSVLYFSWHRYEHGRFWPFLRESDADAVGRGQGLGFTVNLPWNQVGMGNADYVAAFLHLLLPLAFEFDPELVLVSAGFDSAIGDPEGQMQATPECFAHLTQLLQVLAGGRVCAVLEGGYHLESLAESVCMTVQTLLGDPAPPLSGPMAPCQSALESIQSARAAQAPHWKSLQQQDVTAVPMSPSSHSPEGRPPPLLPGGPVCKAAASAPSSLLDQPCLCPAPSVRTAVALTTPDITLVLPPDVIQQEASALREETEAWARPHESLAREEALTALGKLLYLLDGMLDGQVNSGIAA
# In short: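 Two-step fluorogenic read-out (Ex/Em 360/460) after developer digestion of deacetylated RHKK(Ac)AMC (50 μM). Deacetylation ran 2 h at 30 °C with 12 ng/ul HDAC10 (aa 1-481, GST/His tags, baculovirus) in Tris-HCl pH 8.0, BSA, 1% DMSO.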
# Human HDAC7 = target: T3, Human HDAC7 (Homo sapiens, UniProt Q8WUI4); assay: HDAC7 biochemical assay, class IIa-specific substrate; settings: read-out: HDAC Isoform IC50 (nM) 7
# T3 construct: (a.a. 518-end) with N-terminal GST tag; GST (N); host or cells: baculovirus expression system
# T3 sequence (Q8WUI4 518-952 limits assumed): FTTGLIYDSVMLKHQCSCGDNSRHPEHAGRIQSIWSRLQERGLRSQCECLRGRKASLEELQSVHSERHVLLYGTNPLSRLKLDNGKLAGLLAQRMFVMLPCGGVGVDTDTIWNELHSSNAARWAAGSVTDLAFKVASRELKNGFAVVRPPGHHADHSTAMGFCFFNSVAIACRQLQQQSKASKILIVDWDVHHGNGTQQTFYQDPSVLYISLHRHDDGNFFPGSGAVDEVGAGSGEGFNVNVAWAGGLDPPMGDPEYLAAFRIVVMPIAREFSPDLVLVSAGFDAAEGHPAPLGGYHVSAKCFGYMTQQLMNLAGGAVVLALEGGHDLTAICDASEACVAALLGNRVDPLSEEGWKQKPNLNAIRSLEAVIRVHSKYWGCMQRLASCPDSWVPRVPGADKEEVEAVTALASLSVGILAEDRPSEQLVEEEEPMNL
# In short: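 Two-step fluorogenic readout: class IIa-selective trifluoroacetyl-lysine AMC substrate (50 μM) deacetylated by N-terminal GST-HDAC7 fragment (0.001 ng/ul), then digested by developer, Ex/Em 360/460. Reaction: 30 min, room temperature, Tris-HCl pH 8.0, NaCl/KCl/MgCl2, 1 mg/mL BSA, 1% DMSO.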
# Human HDAC2 = target: T4, Human HDAC2 (Homo sapiens, UniProt Q92769); assay: HDAC2 biochemical assay, AMC-labeled peptide substrate; settings: read-out: HDAC Isoform IC50 (nM) 2
# T4 construct: full length with C-terminal GST-tag; GST (C); host or cells: baculovirus expression system
# T4 sequence (Q92769 whole entry, canonical isoform): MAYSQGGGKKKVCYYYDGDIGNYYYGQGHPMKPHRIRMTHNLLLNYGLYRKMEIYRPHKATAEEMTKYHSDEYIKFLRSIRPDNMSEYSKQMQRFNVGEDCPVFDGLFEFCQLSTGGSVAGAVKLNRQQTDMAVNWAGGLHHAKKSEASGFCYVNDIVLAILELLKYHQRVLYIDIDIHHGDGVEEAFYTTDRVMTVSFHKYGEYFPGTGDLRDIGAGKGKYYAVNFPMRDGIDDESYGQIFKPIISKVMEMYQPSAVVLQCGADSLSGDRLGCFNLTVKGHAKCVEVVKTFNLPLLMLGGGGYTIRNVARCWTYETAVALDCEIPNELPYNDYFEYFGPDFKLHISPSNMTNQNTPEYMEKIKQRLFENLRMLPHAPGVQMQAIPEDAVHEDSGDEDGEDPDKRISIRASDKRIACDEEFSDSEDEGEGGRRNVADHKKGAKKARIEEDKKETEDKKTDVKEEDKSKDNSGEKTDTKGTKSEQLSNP
# In short: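 Full-length human HDAC2 with C-terminal GST tag, baculovirus-expressed, at 0.07 ng/ul with 50 μM RHKK(Ac)AMC substrate in Tris-HCl pH8.0 buffer with BSA, 1% DMSO final. Incubated 1 hour at 30° C with compounds, then developer added; fluorescence read at 360/460 Ex/Em.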
# Human HDAC9 = target: T5, Human HDAC9 (Homo sapiens, UniProt Q9UKV0); assay: HDAC9 biochemical assay, class IIa-specific substrate; settings: read-out: HDAC Isoform IC50 (nM) 9
# T5 construct: amino acids 604-1066 with C-terminal His tag; His (C); host or cells: baculovirus expression system
# T5 sequence (Q9UKV0 604-1066 isoform Q9UKV0-5): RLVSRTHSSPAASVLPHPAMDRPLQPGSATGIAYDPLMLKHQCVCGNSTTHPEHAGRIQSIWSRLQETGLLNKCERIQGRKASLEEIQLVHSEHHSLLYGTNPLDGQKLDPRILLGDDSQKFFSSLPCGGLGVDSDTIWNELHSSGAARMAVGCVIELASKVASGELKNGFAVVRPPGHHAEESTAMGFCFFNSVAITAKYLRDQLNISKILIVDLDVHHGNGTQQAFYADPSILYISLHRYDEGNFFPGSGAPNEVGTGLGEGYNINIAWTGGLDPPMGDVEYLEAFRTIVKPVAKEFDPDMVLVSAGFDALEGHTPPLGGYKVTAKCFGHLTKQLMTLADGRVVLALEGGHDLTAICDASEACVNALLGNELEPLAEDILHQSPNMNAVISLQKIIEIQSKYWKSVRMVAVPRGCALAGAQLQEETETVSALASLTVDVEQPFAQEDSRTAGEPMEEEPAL
# In short: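 HDAC9 residues 604-1066 (C-terminal His tag, baculovirus-expressed) at 0.06 ng/ul with 50 μM class IIa substrate Boc-Lys(trifluoroacetyl)-AMC in Tris-HCl pH 8.0 buffer with BSA and 1% DMSO. 30 min at room temperature, then developer added; fluorescence read at 360/460 nm Ex/Em.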
# T1 sequence (Q13547 whole entry, canonical isoform): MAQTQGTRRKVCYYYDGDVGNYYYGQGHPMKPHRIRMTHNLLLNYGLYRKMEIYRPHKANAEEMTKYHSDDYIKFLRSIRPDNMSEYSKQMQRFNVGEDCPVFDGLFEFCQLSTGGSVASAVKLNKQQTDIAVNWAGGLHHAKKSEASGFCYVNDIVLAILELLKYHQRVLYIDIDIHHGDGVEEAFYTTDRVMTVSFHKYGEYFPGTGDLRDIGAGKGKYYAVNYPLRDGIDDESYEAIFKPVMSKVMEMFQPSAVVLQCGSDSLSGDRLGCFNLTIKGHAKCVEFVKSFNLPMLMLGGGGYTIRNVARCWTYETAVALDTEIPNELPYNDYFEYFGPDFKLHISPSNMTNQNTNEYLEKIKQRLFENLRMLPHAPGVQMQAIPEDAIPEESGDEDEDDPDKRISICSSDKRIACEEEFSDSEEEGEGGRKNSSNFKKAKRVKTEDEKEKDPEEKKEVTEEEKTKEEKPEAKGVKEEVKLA
SMILES,IC50 (Human HDAC1) [nM],IC50 (Human HDAC10) [nM],IC50 (Human HDAC7) [nM],IC50 (Human HDAC2) [nM],IC50 (Human HDAC9) [nM]
"FC(F)(F)c1cnc(N(Cc2ccc(-c3noc(C(F)(F)F)n3)s2)c2cnccn2)cn1 [Example BK, N-(Pyrazin-2-yl)-5-(trifluoromethyl)-N-({5-[5-(trifluoromethyl)-1,2,4-oxadiazol-3-yl]thiophen-2-yl}methyl)pyrazin-2-amine]",> 10000,> 10000,≤ 10000,> 10000,≤ 10000
"O=C(c1cnnc(N(Cc2ccc(-c3noc(C(F)(F)F)n3)s2)c2cnccn2)c1)N1C[C@@H]2C[C@H]1CO2 [Example FV, 5-[(1S,4S)-2-Oxa-5-azabicyclo[2.2.1]heptane-5-carbonyl]-N-(pyrazin-2-yl)-N-({5-[5-(trifluoromethyl)-1,2,4-oxadiazol-3-yl]thiophen-2-yl}methyl)pyridazin-3-amine]",> 10000,> 10000,≤ 10000,> 10000,≤ 10000
"Cc1nccnc1N(Cc1ccc(-c2noc(C(F)(F)F)n2)s1)c1cnccn1 [Example BE, 3-Methyl-N-(pyrazin-2-yl)-N-({5-[5-(trifluoromethyl)-1,2,4-oxadiazol-3-yl]thiophen-2-yl}methyl)pyrazin-2-amine]",> 10000,> 10000,≤ 500,> 10000,≤ 1000
"FC(F)(F)c1nc(-c2ccc(CN(c3ccccn3)c3ccccn3)s2)no1 [Example U, N-(Pyridin-2-yl)-N-({5-[5-(trifluoromethyl)-1,2,4-oxadiazol-3-yl]thiophen-2-yl}methyl)pyridin-2-amine]",> 10000,> 10000,≤ 10000,> 10000,≤ 10000
"O=C(c1ccc(N(Cc2ccc(-c3noc(C(F)(F)F)n3)s2)c2cnccn2)nn1)N1CCCCC1 [Example FG, 6-(Piperidine-1-carbonyl)-N-(pyrazin-2-yl)-N-({5-[5-(trifluoromethyl)-1,2,4-oxadiazol-3-yl]thiophen-2-yl}methyl)pyridazin-3-amine]",> 10000,> 10000,≤ 500,> 10000,≤ 1000
"O=C(c1cnnc(N(Cc2ccc(-c3noc(C(F)(F)F)n3)s2)c2cnccn2)c1)N1C2CCC1COC2 [Example GB, 5-{3-Oxa-8-azabicyclo[3.2.1]octane-8-carbonyl}-N-(pyrazin-2-yl)-N-({5-[5-(trifluoromethyl)-1,2,4-oxadiazol-3-yl]thiophen-2-yl}methyl)pyridazin-3-amine]",> 10000,> 10000,≤ 10000,> 10000,≤ 10000
"FC(F)c1cnnc(N(Cc2ccc(-c3noc(C(F)(F)F)n3)s2)c2cnccn2)c1 [Example GV, 5-(Difluoromethyl)-N-(pyrazin-2-yl)-N-({5-[5-(trifluoromethyl)-1,2,4-oxadiazol-3-yl]thiophen-2-yl}methyl)pyridazin-3-amine]",> 10000,> 10000,≤ 1000,> 10000,≤ 10000
"O=C(c1cnnc(N(Cc2ccc(-c3noc(C(F)(F)F)n3)s2)c2cnccn2)c1)N1CCC1 [Example FS, 5-(Azetidine-1-carbonyl)-N-(pyrazin-2-yl)-N-({5-[5-(trifluoromethyl)-1,2,4-oxadiazol-3-yl]thiophen-2-yl}methyl)pyridazin-3-amine]",> 10000,> 10000,≤ 1000,> 10000,≤ 10000

# Results, then the molecule that gave them:
IC50 (Human HDAC1) [nM],IC50 (Human HDAC10) [nM],IC50 (Human HDAC7) [nM],IC50 (Human HDAC2) [nM],IC50 (Human HDAC9) [nM],SMILES
> 10000,> 10000,≤ 500,> 10000,≤ 10000,"CNC(=O)c1cnnc(N(Cc2ccc(-c3noc(C(F)(F)F)n3)s2)c2cnccn2)c1 [Example DY, N-Methyl-6-[(pyrazin-2-yl)({5-[5-(trifluoromethyl)-1,2,4-oxadiazol-3-yl]thiophen-2-yl}methyl)amino]pyridazine-4-carboxamide]"
> 10000,> 10000,≤ 1000,> 10000,≤ 10000,"CN(C)C1CN(C(=O)c2cnnc(N(Cc3ccc(-c4noc(C(F)(F)F)n4)s3)c3cnccn3)c2)C1 [Example FX, 5-[3-(Dimethylamino)azetidine-1-carbonyl]-N-(pyrazin-2-yl)-N-({5-[5-(trifluoromethyl)-1,2,4-oxadiazol-3-yl]thiophen-2-yl}methyl)pyridazin-3-amine]"
> 10000,> 10000,≤ 500,> 10000,≤ 10000,"O=C(c1cncc(N(Cc2ccc(-c3noc(C(F)(F)F)n3)s2)c2cnccn2)c1)N1CCOCC1 [Example GR, N-[5-(Morpholine-4-carbonyl)pyridin-3-yl]-N-({5-[5-(trifluoromethyl)-1,2,4-oxadiazol-3-yl]thiophen-2-yl}methyl)pyrazin-2-amine]"
> 10000,> 10000,≤ 1000,> 10000,≤ 10000,"CN1CCN(C(=O)c2cnnc(N(Cc3ccc(-c4noc(C(F)(F)F)n4)s3)c3cnccn3)c2)CC1 [Example EC, 5-(4-Methylpiperazine-1-carbonyl)-N-(pyrazin-2-yl)-N-({5-[5-(trifluoromethyl)-1,2,4-oxadiazol-3-yl]thiophen-2-yl}methyl)pyridazin-3-amine]"
> 10000,> 10000,≤ 10000,> 10000,≤ 10000,"NC(=O)c1nccnc1N(Cc1ccc(-c2noc(C(F)(F)F)n2)s1)c1cnccn1 [Example GO, 3-[(Pyrazin-2-yl)({5-[5-(trifluoromethyl)-1,2,4-oxadiazol-3-yl]thiophen-2-yl}methyl)amino]pyrazine-2-carboxamide]"
> 10000,> 10000,≤ 10000,> 10000,≤ 10000,"FC(F)(F)c1nc(-c2ccc(CN(c3cnccn3)c3cc(CN4CCOCC4)ccn3)s2)no1 [Example GI, N-{4-[(Morpholin-4-yl)methyl]pyridin-2-yl}-N-({5-[5-(trifluoromethyl)-1,2,4-oxadiazol-3-yl]thiophen-2-yl}methyl)pyrazin-2-amine]"
≤ 10000,> 10000,≤ 10000,> 10000,≤ 10000,"FC(F)(F)c1nc(-c2ccc(CN(c3cnccn3)c3cnc(N4CCOCC4)cn3)s2)no1 [Example BM, 5-(Morpholin-4-yl)-N-(pyrazin-2-yl)-N-({5-[5-(trifluoromethyl)-1,2,4-oxadiazol-3-yl]thiophen-2-yl}methyl)pyrazin-2-amine]"
≤ 10000,> 10000,≤ 1000,> 10000,≤ 10000,"O=C(c1cnnc(N(Cc2ccc(-c3noc(C(F)(F)F)n3)s2)c2cnccn2)c1)N1CC(O)(C(F)(F)F)C1 [Example GD, 1-{6-[(Pyrazin-2-yl)({5-[5-(trifluoromethyl)-1,2,4-oxadiazol-3-yl]thiophen-2-yl}methyl)amino]pyridazine-4-carbonyl}-3-(trifluoromethyl)azetidin-3-ol]"
